According to patent US20250179047A1, “5-[7-(3,4-DIHYDRO-1H-ISOQUINOLINE-2-CARBONYL)-1,2,3,4 TETRAHYDROISOQUINOLIN-6-YL]-1H-PYRROLE-3-CARBOXAMIDE DERIVATIVES, PHARMACEUTICAL COMPOSITIONS CONTAINING THEM AND THEIR USES AS PRO-APOPTOTIC AGENTS” (LES LABORATOIRES SERVIER, priority 2022, published 2025):

Tests used:
KMS12PE Bcl2 V156D = assay: In vitro cytotoxicity CellTiterGlo 72 h, KMS12PE Bcl2 V156D; assay type: cell-based; details: Homo sapiens, KMS-12-PE, read-out: C50 nM, KMS12PE Bcl2 V156D
Method: (§1) KMS-12-PE (ACC 606) were purchased from the Leibniz-Institute DSMZ (Braunschweig, Germany) and were grown at 37° C. in a humidified atmosphere with 5% CO2 in media recommended by the suppliers. Lentiviral particles containing Bcl-2 wild type (also named “Bcl2 WT”), Bcl-2 mutated on G101V (also named “Bcl2 G101V”), Bcl-2 mutated on D103Y (also named “Bcl2 D103Y”), Bcl-2 mutated on D103V (also named “Bcl2 D103V”), Bcl-2 mutated on D103E (also named “Bcl2 D103E”), Bcl-2 mutated on F104I (also named “Bcl2 F104I”), Bcl-2 mutated on F104L (also named “Bcl2 F104L”), Bcl-2 mutated on D111A (also named “Bcl2 D111A”), Bcl-2 mutated on A113G (also named “Bcl2 A113G”), Bcl-2 mutated on R129L (also named “Bcl2 R129L”), Bcl-2 mutated on V156D (also named “Bcl2 V156D”) were cloned into pcLV-CMV-DEST-IRES-TagRFP. Lentiviral particles (1×10^6) were mixed with Polybrene at 8 μg/ml and transduced by spinoculation for 1 h at 32° C. and incubated overnight. After 8 days, TagRFP positive-cells were sorted by FACS. BCL2 expression was monitored by immunoblotting using anti-Flag and anti-BCL2 antibodies. Cells were seeded into 96-wells plates and treated with 1:3.16 serial dilution of compounds (9 different concentrations). Cell viability was assessed using CellTiterGlo reagent following treatment for 72 h. Results were normalized to the viability of cells without compounds (control wells). The C50 values were calculated using nonlinear regression algorithms in XCell software.

platelets = assay: Platelet depletion in SCID mice; assay type: in vivo; details: 25 mg/kg IV bolus, vs control group; for Platelet loss (%) 6 h: 6 h after dosing; for Platelet loss (%) 24 h: 24 h after dosing
Method: (§2) Pharmacokinetic (PK) and platelet toxicity were investigated in SCID mice. Compounds were administered at 25 mg/kg by IV bolus, and formulated in PEG/Ethanol/NaCl 0.9% (40/10/50 v/v/v).
(§3) Blood samples (3 animals/time point and 3 time points/animal) were collected over 24 h after dosing: 0.05 h, 0.5 h, 1 h, 3 h, 6 h and 24 h for PK and 6 h and 24 h for platelets.
(§4) PK samples were analyzed by liquid chromatography using tandem mass spectrometry detection (LC-MS/MS) and platelet count (109/L) was measured using an hematology analyzer. Percentage of platelet loss was calculated at both time points (T+6 h and 24 h) as compared to a control group of 6 animals. PK parameters (Cinf and AUC24, which correspond to the concentration at the end of bolus administration and the area under curve over 24 h, respectively) were also determined using a non-compartmental analysis.

KMS12PE Bcl2 A113G = assay: In vitro cytotoxicity CellTiterGlo 72 h, KMS12PE Bcl2 A113G; assay type: cell-based; details: Homo sapiens, KMS-12-PE, read-out: C50 nM, KMS12PE Bcl2 A113G
Method: as §1

BCL2 D103Y = BCL2 D103Y (Homo sapiens, UniProt P10415, D103Y); assay: TR-FRET competitive binding assay, BCL2 D103Y; details: Ki determined from IC50, read-out: TR_FRET EKI_Bcl2 D103Y
In short: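 Competitive TR-FRET displacement of fluorescein-PUMA peptide (2 or 20 nM) from 0.5 nM terbium-labelled N-terminal Halo-fusion BCL2 (1-207, wild type or mutant) or BCLXL (2-196), expressed in E. coli. Buffer 50 mM Hepes pH 7.5, 150 mM NaCl, 5% DMSO; 2 h at 23°C. 520/495 nm ratio fitted over 11 points for IC50, converted to Ki.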

KMS12PE = assay: In vitro cytotoxicity CellTiterGlo 72 h, KMS12PE; assay type: cell-based; details: Homo sapiens, KMS-12-PE, read-out: C50 nM, KMS12PE
Method: as §1

[1] = Pharmacokinetics in SCID mice; assay type: in vivo; details: 25 mg/kg IV bolus; for PK parameters Cinf: concentration at the end of bolus administration; for AUC: mouse, blood, area under curve over 24 h, read-out: PK parameters AUC24
Method: as §2, §3, §4

| Platelet loss (%) 6 h (platelets) [%] | Platelet loss (%) 24 h (platelets) [%] | Ki (BCL2 D103Y) [nM] | PK parameters Cinf [1] [µM] | AUC [1] [µM·h] | Compound | IC50 (KMS12PE Bcl2 V156D) [nM] | IC50 (KMS12PE Bcl2 A113G) [nM] | IC50 (KMS12PE) [nM] |
| --- | --- | --- | --- | --- | --- | --- | --- | --- |
| 18.6 | 11.0 | 0.73 | 12.2 | 19.5 | Cc1c(N(C(=O)c2cc(-c3cc4c(cc3C(=O)N3Cc5ccccc5C[C@H]3C)CN(C(=O)Cc3ccc(OCCC5CCOCC5)cc3)CC4)n(C)c2C)c2ccc(O)cc2)cc(C#N)n1C [Example 27, N-(5-cyano-1,2-dimethyl-1H-pyrrol-3-yl)-N-(4-hydroxyphenyl)-1,2-dimethyl-5-{7-[(3R)-3-methyl-1,2,3,4-tetrahydroisoquinoline-2-carbonyl]-2-(2-{4-[2-(oxan-4-yl)ethoxy]phenyl}acetyl)-1,2,3,4-tetrahydroisoquinolin-6-yl}-1H-pyrrole-3-carboxamide] | 3.84 | 2.79 | 0.19 |
| 22.0 | 27.6 | 0.15 | 40.8 | 34.2 | Cc1c(N(C(=O)c2cc(-c3cc4c(cc3C(=O)N3Cc5ccccc5C[C@H]3C)CN(C(=O)Cc3ccc(N5CCN6CCOC[C@@H]6C5)cc3F)CC4)n(C)c2C)c2ccc(O)cc2)cc(C#N)n1C [Example 45, 5-[2-(2-{4-[(9aS)-octahydropyrazino[2,1-c][1,4]oxazin-8-yl]-2-fluorophenyl}acetyl)-7-[(3R)-3-methyl-1,2,3,4-tetrahydroisoquinoline-2-carbonyl]-1,2,3,4-tetrahydroisoquinolin-6-yl]-N-(5-cyano-1,2-dimethyl-1H-pyrrol-3-yl)-N-(4-hydroxyphenyl)-1,2-dimethyl-1H-pyrrole-3-carboxamide] | 0.96 | 8.03 | 0.32 |
|  |  | 0.32 |  |  | Cc1c(N(C(=O)c2cc(-c3cc4c(cc3C(=O)N3Cc5ccccc5C[C@H]3CN3CCC[C@H](C)C3)CN(C(=O)Cc3ccc(OCCN5CCOCC5)cc3F)CC4)n(C)c2C)c2ccc(O)cc2)cc(C#N)n1C [Example 107] | 5.93 | 2.82 | 0.15 |
|  |  | 0.18 |  |  | Cc1c(N(C(=O)c2cc(-c3cc4c(cc3C(=O)N3Cc5ccccc5C[C@H]3C)CN(C(=O)Cc3ccc(OCCN5CCC(F)CC5)cc3)CC4)n(C)c2C)c2ccc(O)cc2)cc(C#N)n1C [Example 53, N-(5-cyano-1,2-dimethyl-1H-pyrrol-3-yl)-5-[2-(2-{4-[2-(4-fluoropiperidin-1-yl)ethoxy]phenyl}acetyl)-7-[(3R)-3-methyl-1,2,3,4-tetrahydroisoquinoline-2-carbonyl]-1,2,3,4-tetrahydroisoquinolin-6-yl]-N-(4-hydroxyphenyl)-1,2-dimethyl-1H-pyrrole-3-carboxamide] | 21.4 | 5.68 | 0.35 |
| 26.9 | 33.9 | 0.16 | 17.3 | 11.4 | Cc1c(N(C(=O)c2cc(-c3cc4c(cc3C(=O)N3Cc5ccccc5C[C@H]3C)CN(C(=O)Cc3ccc(OCCN5CCSCC5)cc3)CC4)n(C)c2C)c2ccc(O)cc2)cc(C#N)n1C [Example 55, N-(5-cyano-1,2-dimethyl-1H-pyrrol-3-yl)-N-(4-hydroxyphenyl)-1,2-dimethyl-5-{7-[(3R)-3-methyl-1,2,3,4-tetrahydroisoquinoline-2-carbonyl]-2-(2-{4-[2-(thiomorpholin-4-yl)ethoxy]phenyl}acetyl)-1,2,3,4-tetrahydroisoquinolin-6-yl}-1H-pyrrole-3-carboxamide] | 14.9 | 5.53 | 0.33 |
|  |  | 0.92 |  |  | Cc1c(N(C(=O)c2cc(-c3cc4c(cc3C(=O)N3Cc5ccccc5C[C@H]3C)CN(C(=O)Cc3ccc(CCN5CCC(F)(F)CC5)cc3)CC4)n(C)c2C)c2ccc(O)cc2)cc(C#N)n1C [Example 51, N-(5-cyano-1,2-dimethylpyrrol-3-yl)-5-[2-(2-{4-[2-(4,4-difluoropiperidin-1-yl)ethyl]phenyl}acetyl)-7-{[(3R)-3-methyl-3,4-dihydro-1H-isoquinolin-2-yl]carbonyl}-3,4-dihydro-1H-isoquinolin-6-yl]-N-(4-hydroxyphenyl)-1,2-dimethylpyrrole-3-carboxamide] | 31.9 | 9.24 | 0.34 |
| 58.4 | 30.3 | 0.35 | 21.0 | 12 | Cc1c(N(C(=O)c2cc(-c3cc4c(cc3C(=O)N3Cc5ccccc5C[C@H]3C)CN(C(=O)Cc3ccc(OCCN5CCOCC5)cc3)CC4)n(C)c2C)c2ccc(O)cc2)cc(C#N)n1C [Example 21, N-(5-cyano-1,2-dimethyl-1H-pyrrol-3-yl)-N-(4-hydroxyphenyl)-1,2-dimethyl-5-{7-[(3R)-3-methyl-1,2,3,4-tetrahydroisoquinoline-2-carbonyl]-2-(2-{4-[2-(morpholin-4-yl)ethoxy]phenyl}acetyl)-1,2,3,4-tetrahydroisoquinolin-6-yl}-1H-pyrrole-3-carboxamide] | 9.77 | 4.06 | 0.24 |
|  |  | 0.23 |  |  | Cc1c(N(C(=O)c2cc(-c3cc4c(cc3C(=O)N3Cc5ccccc5C[C@H]3CN3CCCCC3)CN(C(=O)Cc3ccc(OCCC5CCOCC5)cc3)CC4)n(C)c2C)c2ccc(O)cc2)cc(C#N)n1C [Example 66, N-(5-cyano-1,2-dimethylpyrrol-3-yl)-N-(4-hydroxyphenyl)-1,2-dimethyl-5-[2-(2-{4-[2-(oxan-4-yl)ethoxy]phenyl}acetyl)-7-{[(3S)-3-(piperidin-1-ylmethyl)-3,4-dihydro-1H-isoquinolin-2-yl]carbonyl}-3,4-dihydro-1H-isoquinolin-6-yl]pyrrole-3-carboxamide] | 7.65 | 2.89 | 0.2 |
|  |  | 0.14 |  |  | Cc1c(C(=O)N(c2ccc(O)cc2)c2cc(C#N)n(C(F)F)c2C)cc(-c2cc3c(cc2C(=O)N2Cc4ccccc4C[C@H]2CN2CCCCC2)CN(C(=O)Cc2ccc(OCCN4CCOCC4)cc2F)CC3)n1C [Example 78, N-[5-cyano-1-(difluoromethyl)-2-methylpyrrol-3-yl]-5-[2-(2-{2-fluoro-4-[2-(morpholin-4-yl)ethoxy]phenyl}acetyl)-7-{[(3S)-3-(piperidin-1-ylmethyl)-3,4-dihydro-1H-isoquinolin-2-yl]carbonyl}-3,4-dihydro-1H-isoquinolin-6-yl]-N-(4-hydroxyphenyl)-1,2-dimethylpyrrole-3-carboxamide] | 5.88 | 2.11 | 0.12 |
|  |  | 0.14 |  |  | Cc1c(C(=O)N(c2ccc(O)cc2)c2cc(C#N)n(C(F)F)c2C)cc(-c2cc3c(cc2C(=O)N2Cc4ccccc4C[C@H]2CN2CCCCC2)CN(C(=O)Cc2ccc(OCCN4CCOCC4)cc2)CC3)n1C [Example 77] | 19.1 | 7.86 | 0.42 |
